Where two headings read alike, the source gives them in different places.
How the values were obtained:
EGFR del19/T790M/C797S = EGFR del19/T790M/C797S (Homo sapiens, UniProt P00533, C797S/DEL746-750/T790M); assay: Biochemical EGFR kinase assay (Lance Ultra TR-FRET), triple mutant del19/T790M/C797S
Method in brief: (§1)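 Enzyme reactions lasted 1 hour at room temperature with test compounds between 0.003 and 10 μM, followed by 10 mM EDTA quench.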

EGFR L858R/T790M/C797S = EGFR L858R/T790M/C797S (Homo sapiens, UniProt P00533, C797S/L858R/T790M); assay: Biochemical EGFR kinase assay (Lance Ultra TR-FRET), triple mutant L858R/T790M/C797S
Method in brief: as §1

EGFR del19/C797S = EGFR del19/C797S (Homo sapiens, UniProt P00533, C797S/DEL746-750); assay: Biochemical EGFR kinase assay (Lance Ultra TR-FRET), double mutant del19/C797S
EGFR del19/C797S, sequence (P00533 with tags, fused parts or gaps DEL746-750/C797S): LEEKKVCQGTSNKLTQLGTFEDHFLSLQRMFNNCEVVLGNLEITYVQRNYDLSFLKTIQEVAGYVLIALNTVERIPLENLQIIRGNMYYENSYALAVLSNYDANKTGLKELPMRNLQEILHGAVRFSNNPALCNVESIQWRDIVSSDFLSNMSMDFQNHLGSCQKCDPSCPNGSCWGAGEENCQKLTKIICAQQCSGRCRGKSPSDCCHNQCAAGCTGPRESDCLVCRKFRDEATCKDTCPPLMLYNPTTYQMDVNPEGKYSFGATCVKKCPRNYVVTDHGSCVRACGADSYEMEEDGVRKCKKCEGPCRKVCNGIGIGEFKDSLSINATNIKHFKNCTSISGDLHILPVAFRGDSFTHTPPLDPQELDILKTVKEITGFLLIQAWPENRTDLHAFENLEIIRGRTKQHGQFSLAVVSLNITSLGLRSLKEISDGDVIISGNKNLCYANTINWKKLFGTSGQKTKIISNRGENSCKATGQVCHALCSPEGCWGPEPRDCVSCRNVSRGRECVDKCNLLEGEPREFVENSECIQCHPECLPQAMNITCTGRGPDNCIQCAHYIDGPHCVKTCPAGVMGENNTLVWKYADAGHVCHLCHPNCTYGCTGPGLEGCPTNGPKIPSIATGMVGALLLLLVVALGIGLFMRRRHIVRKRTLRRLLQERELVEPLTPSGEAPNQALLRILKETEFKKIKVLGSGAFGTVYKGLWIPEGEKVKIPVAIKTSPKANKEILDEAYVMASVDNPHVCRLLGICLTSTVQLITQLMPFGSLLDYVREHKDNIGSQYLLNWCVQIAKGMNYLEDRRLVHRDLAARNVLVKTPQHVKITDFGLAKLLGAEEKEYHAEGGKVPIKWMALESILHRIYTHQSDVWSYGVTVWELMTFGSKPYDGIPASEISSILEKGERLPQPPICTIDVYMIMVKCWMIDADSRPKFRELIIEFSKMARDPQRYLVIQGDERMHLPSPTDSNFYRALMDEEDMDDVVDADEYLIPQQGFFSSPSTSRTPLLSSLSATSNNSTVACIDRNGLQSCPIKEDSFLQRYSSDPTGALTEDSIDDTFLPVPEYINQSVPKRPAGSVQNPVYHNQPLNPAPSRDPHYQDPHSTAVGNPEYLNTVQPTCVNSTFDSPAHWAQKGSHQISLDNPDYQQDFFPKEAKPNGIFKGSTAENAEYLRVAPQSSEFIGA
Method in brief: as §1

EGFR L858R/C797S = EGFR L858R/C797S (Homo sapiens, UniProt P00533, C797S/L858R); assay: Biochemical EGFR kinase assay (Lance Ultra TR-FRET), double mutant L858R/C797S
EGFR L858R/C797S, sequence (P00533 25-1210 C797S/L858R): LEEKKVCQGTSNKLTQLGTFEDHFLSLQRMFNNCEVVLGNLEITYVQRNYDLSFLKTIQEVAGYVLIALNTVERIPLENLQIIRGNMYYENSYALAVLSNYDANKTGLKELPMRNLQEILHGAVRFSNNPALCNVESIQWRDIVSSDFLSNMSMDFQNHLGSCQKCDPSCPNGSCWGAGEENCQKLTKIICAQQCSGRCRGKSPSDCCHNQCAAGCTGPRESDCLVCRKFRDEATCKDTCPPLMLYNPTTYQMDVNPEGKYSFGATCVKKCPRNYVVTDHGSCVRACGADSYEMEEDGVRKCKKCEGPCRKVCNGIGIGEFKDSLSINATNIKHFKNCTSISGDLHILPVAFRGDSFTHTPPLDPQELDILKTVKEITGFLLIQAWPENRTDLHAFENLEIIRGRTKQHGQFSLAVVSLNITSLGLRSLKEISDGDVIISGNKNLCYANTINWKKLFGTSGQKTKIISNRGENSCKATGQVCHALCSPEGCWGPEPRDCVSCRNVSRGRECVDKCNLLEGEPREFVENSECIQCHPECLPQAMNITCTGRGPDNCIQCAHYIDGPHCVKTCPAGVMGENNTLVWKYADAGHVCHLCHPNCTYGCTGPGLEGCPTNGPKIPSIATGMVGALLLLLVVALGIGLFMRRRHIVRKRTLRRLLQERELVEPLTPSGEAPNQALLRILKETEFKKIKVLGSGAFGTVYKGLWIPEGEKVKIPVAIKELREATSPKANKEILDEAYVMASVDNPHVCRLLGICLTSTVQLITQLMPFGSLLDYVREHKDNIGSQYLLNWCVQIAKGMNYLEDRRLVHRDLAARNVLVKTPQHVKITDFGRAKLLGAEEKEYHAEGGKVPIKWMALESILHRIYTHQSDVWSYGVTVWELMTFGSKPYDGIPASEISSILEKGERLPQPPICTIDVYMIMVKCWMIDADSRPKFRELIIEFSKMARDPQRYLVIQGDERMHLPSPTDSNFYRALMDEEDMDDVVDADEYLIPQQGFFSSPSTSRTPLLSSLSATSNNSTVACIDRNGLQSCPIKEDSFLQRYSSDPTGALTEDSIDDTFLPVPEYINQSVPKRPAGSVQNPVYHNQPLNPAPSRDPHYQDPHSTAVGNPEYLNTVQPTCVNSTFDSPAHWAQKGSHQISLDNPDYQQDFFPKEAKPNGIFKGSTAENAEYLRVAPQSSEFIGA
Method in brief: as §1

EGFR wildtype (WT) = EGFR wildtype (WT) (Homo sapiens, UniProt P00533); assay: Biochemical EGFR kinase assay (Lance Ultra TR-FRET), wildtype
EGFR wildtype (WT), sequence (P00533 25-1210): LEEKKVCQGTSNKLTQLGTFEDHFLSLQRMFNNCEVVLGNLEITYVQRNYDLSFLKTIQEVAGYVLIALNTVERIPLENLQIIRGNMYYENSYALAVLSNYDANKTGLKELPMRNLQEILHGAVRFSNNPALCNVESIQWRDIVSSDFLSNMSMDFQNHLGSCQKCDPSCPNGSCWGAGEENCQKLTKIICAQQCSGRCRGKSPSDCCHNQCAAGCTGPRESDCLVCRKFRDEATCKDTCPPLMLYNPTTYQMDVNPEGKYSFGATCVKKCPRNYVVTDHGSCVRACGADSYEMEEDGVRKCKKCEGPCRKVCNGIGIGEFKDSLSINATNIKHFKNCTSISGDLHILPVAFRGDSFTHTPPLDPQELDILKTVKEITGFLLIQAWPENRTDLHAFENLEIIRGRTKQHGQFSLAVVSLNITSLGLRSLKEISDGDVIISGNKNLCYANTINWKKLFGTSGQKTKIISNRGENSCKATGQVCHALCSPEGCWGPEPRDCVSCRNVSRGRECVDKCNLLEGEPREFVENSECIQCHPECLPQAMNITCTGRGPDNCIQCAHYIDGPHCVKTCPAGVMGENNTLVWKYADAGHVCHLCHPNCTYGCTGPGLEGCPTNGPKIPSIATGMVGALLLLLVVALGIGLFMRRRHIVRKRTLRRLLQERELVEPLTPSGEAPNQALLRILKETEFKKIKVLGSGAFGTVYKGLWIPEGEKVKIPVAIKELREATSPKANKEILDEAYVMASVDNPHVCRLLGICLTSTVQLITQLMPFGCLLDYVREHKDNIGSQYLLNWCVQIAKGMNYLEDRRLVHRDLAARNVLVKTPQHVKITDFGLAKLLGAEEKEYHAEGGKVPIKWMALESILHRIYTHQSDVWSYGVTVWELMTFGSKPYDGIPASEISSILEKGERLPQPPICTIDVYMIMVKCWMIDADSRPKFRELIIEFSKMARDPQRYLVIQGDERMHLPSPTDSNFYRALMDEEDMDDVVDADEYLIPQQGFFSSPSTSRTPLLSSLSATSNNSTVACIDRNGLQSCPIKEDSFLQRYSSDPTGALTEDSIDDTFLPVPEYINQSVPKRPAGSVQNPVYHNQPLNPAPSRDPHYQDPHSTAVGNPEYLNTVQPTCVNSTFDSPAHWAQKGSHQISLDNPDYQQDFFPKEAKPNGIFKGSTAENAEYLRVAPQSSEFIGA
Method in brief: as §1

[1] = Km ATP, read-out: IC50 del19/T790M/C797S (nM) Km ATP
[2] = Km ATP, read-out: IC50 L858R/T790M/C797S (nM) Km ATP
[3] = Km ATP, read-out: IC50 del19/C797S (nM) Km ATP
[4] = Km ATP, read-out: IC50 L858R/C797S (nM) Km ATP
[5] = Km ATP, read-out: IC50 WT (nM) Km ATP
[6] = IC50 del19/T790M/C797S (nM) 100 μM ATP, 100 μM ATP
[7] = IC50 L858R/T790M/C797S (nM) 100 μM ATP, 100 μM ATP
[8] = IC50 del19/C797S (nM) 100 μM ATP, 100 μM ATP
[9] = IC50 L858R/C797S (nM) 100 μM ATP, 100 μM ATP
[10] = IC50 WT (nM) 100 μM ATP, 100 μM ATP

EGFR del19/T790M/C797S, sequence (P00533 with tags, fused parts or gaps DEL746-750/T790M/C797S): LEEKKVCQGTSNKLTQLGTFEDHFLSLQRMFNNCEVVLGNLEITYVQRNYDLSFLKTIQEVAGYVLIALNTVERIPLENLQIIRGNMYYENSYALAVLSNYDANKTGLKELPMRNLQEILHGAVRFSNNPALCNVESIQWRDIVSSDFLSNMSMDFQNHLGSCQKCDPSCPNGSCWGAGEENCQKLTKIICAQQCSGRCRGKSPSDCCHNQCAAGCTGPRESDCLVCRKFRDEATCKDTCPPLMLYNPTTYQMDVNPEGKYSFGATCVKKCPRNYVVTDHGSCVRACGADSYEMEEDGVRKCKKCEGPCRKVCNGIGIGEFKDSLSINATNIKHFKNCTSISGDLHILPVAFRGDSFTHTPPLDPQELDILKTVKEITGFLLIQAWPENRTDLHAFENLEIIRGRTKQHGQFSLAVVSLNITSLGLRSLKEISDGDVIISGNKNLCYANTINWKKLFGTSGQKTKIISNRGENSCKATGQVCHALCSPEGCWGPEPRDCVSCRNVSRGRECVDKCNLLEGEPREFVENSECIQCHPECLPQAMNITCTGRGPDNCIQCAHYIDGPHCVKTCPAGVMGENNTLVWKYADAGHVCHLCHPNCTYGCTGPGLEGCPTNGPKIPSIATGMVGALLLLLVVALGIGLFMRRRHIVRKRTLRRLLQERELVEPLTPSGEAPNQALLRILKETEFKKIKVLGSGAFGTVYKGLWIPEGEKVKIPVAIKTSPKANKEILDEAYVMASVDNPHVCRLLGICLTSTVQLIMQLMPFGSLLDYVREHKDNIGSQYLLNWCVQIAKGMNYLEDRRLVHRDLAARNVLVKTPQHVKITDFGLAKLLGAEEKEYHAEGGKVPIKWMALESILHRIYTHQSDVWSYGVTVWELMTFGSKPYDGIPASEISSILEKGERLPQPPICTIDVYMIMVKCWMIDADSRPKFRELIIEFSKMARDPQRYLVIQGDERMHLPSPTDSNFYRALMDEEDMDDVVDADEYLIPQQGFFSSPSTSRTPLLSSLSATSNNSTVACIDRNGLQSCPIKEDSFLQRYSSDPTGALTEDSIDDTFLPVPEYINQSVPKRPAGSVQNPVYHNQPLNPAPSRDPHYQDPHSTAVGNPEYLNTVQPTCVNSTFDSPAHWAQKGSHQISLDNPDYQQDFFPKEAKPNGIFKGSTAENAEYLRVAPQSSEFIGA

Row | IC50 (EGFR del19/T790M/C797S; [1]) [nM] | IC50 (EGFR L858R/T790M/C797S; [2]) [nM] | IC50 (EGFR del19/C797S; [3]) [nM] | IC50 (EGFR L858R/C797S; [4]) [nM] | IC50 (EGFR wildtype (WT); [5]) [nM] | IC50 (EGFR del19/T790M/C797S; [6]) [nM] | IC50 (EGFR L858R/T790M/C797S; [7]) [nM] | IC50 (EGFR del19/C797S; [8]) [nM] | IC50 (EGFR L858R/C797S; [9]) [nM] | IC50 (EGFR wildtype (WT); [10]) [nM] | IC50 (EGFR del19/T790M/C797S; Km ATP, read-out: IC50 del19/T790M/C797S, Km ATP) [nM] | IC50 (EGFR L858R/T790M/C797S; Km ATP, read-out: IC50 L858R/T790M/C797S, Km ATP) [nM] | IC50 (EGFR del19/C797S; Km ATP, read-out: IC50 del19/C797S, Km ATP) [nM] | IC50 (EGFR L858R/C797S; Km ATP, read-out: IC50 L858R/C797S, Km ATP) [nM] | IC50 (EGFR wildtype (WT); Km ATP, read-out: IC50 WT, Km ATP) [nM] | SMILES
1 | 1.3 | 1.1 | 410 | 23.2 | 418 |  |  |  |  |  |  |  |  |  |  | FC(F)Cn1cc(-c2nccc(Nc3cc(NC4CCCC(F)C4)c(-c4ccn(C(F)F)n4)cn3)n2)cn1 (centres unmarked) [Example 180, N^2-(2-(1-(2,2-Difluoroethyl)-1H-pyrazol-4-yl)pyrimidin-4-yl)-5-(1-(difluoromethyl)-1H-pyrazol-3-yl)-N^4-(3-fluorocyclohexyl)pyridine-2,4-diamine]
2 | 0.9 | 0.4 |  | 4.4 | 22.4 | 1.1 | 1.2 | 2.1 | 21.5 | > 10000 |  |  |  |  |  | O=S(=O)(C1CC1)n1cc(-c2nccc(Nc3cc(NC[C@H]4CC[C@H](CO)CC4)c(-c4ccn(C(F)F)n4)cn3)n2)cn1 [Example 22, ((1r,4r)-4-(((2-((2-(1-(Cyclopropylsulfonyl)-1H-pyrazol-4-yl)pyrimidin-4-yl)amino)-5-(1-(difluoromethyl)-1H-pyrazol-3-yl)pyridin-4-yl)amino)methyl)cyclohexyl)methanol]
3 |  |  |  |  |  | 0.7 | 2.7 | 1.9 | 7.7 | 1410 |  |  |  |  |  | CN(C)CCNC1CCC(Nc2cc(Nc3ccnc(-c4cnn(S(=O)(=O)C5CC5)c4)n3)ncc2-c2csc(C(F)(F)F)n2)CC1 (centres unmarked) [Example 98, N^2-(2-(1-(Cyclopropylsulfonyl)-1H-pyrazol-4-yl)pyrimidin-4-yl)-N^4-(4-((2-(dimethylamino)ethyl)amino)cyclohexyl)-5-(2-(trifluoromethyl)thiazol-4-yl)pyridine-2,4-diamine]
4 |  |  |  |  |  | 1.1 | 16.8 | 37.1 | 173 | > 10000 |  |  |  |  |  | Cc1ncc(-c2cnc(Nc3ccnc(-c4cnn(S(=O)(=O)C5CC5)c4)n3)cc2N[C@H]2CC[C@@H](O)CC2)s1 [Example 75, (1s,4s)-4-((2-((2-(1-(Cyclopropylsulfonyl)-1H-pyrazol-4-yl)pyrimidin-4-yl)amino)-5-(2-methylthiazol-5-yl)pyridin-4-yl)amino)cyclohexan-1-ol]
5 | 0.3 | 0.1 | 0.2 | 0.2 | 0.7 | 0.2 | 0.1 | 0.3 | 0.7 | 150 |  |  |  |  |  | O=S(=O)(C1CC1)n1cc(-c2nccc(Nc3cc(N[C@H]4CC[C@@H](CN5CCC5)CC4)c(-c4ccn(CC(F)F)n4)cn3)n2)cn1 [Example 247, N^4-((1s,4s)-4-(Azetidin-1-ylmethyl)cyclohexyl)-N^2-(2-(1-(cyclopropylsulfonyl)-1H-pyrazol-4-yl)pyrimidin-4-yl)-5-(1-(2,2-difluoroethyl)-1H-pyrazol-3-yl)pyridine-2,4-diamine]
6 |  |  |  |  |  | 0.5 | 0.5 | 4.3 | 7.6 | 7100 |  |  |  |  |  | O=S(=O)(C1CC1)n1cc(-c2nccc(Nc3cc(N[C@H]4CC[C@@H](NCCF)CC4)c(-c4ccn(C(F)F)n4)cn3)n2)cn1 [Example 9, N^2-(2-(1-(Cyclopropylsulfonyl)-1H-pyrazol-4-yl)pyrimidin-4-yl)-5-(1-(difluoromethyl)-1H-pyrazol-3-yl)-N^4-((1s,4s)-4-((2-fluoroethyl)amino)cyclohexyl)pyridine-2,4-diamine]
7 | 0.2 | 0.2 | 4.8 | 3.3 | 9.4 | 0.5 | 0.5 | 6 | 33.8 | 4670 |  |  |  |  |  | CN(C)C[C@]1(O)CC[C@@H](Nc2cc(Nc3ccnc(-c4cnn(S(=O)(=O)C5CC5)c4)n3)ncc2-c2ccn(C)n2)CC1 [Example 230, (1s,4s)-4-((2-((2-(1-(Cyclopropylsulfonyl)-1H-pyrazol-4-yl)pyrimidin-4-yl)amino)-5-(1-methyl-1H-pyrazol-3-yl)pyridin-4-yl)amino)-1-((dimethylamino)methyl)cyclohexan-1-ol]
8 | 7.2 | 0.7 | 23.6 | 11.2 | 620 | 2.1 | 1.2 | 2700 | 35.4 | > 10000 |  |  |  |  |  | O=S(=O)(C1CC1)n1cc(-c2nccc(Nc3cc(N[C@H]4CC[C@H](CCO)CC4)c(-c4ccn(CC(F)(F)F)n4)cn3)n2)cn1 [Example 270, 2-((1r,4r)-4-((2-((2-(1-(Cyclopropylsulfonyl)-1H-pyrazol-4-yl)pyrimidin-4-yl)amino)-5-(1-(2,2,2-trifluoroethyl)-1H-pyrazol-3-yl)pyridin-4-yl)amino)cyclohexyl)ethan-1-ol]
9 | 0.5 | 0.5 | 0.8 | 0.2 | 1.6 |  |  |  |  |  |  |  |  |  |  | C=CCCS(=O)(=O)n1cc(-c2nccc(Nc3cc(N[C@H]4CC[C@@](C)(O)CC4)c(-c4ccn(C(F)F)n4)cn3)n2)cn1 [Example 117, (1s,4s)-4-((2-((2-(1-(But-3-en-1-ylsulfonyl)-1H-pyrazol-4-yl)pyrimidin-4-yl)amino)-5-(1-(difluoromethyl)-1H-pyrazol-3-yl)pyridin-4-yl)amino)-1-methylcyclohexan-1-ol]
10 |  |  |  |  |  |  |  |  |  |  | 0.4 | 0.8 | 7.9 | 9 | 55.6 | O=S(=O)(C1CC1)n1cc(-c2cc(Nc3ncc(-c4ccn(C(F)F)n4)c(N[C@H]4CC[C@@H](CO)CC4)n3)ccn2)cn1 [Example 364, ((1s,4s)-4-((2-((2-(1-(Cyclopropylsulfonyl)-1H-pyrazol-4-yl)pyridin-4-yl)amino)-5-(1-(difluoromethyl)-1H-pyrazol-3-yl)pyrimidin-4-yl)amino)cyclohexyl)methanol]
11 | 0.8 | 0.4 | 1.2 | 1.9 | 14.9 | 1.1 | 0.9 | 1.4 | 121 | > 10000 |  |  |  |  |  | O=S(=O)(C1CC1)n1cc(-c2nccc(Nc3cc(NC4CCC(F)(CO)CC4)c(-c4cc5n(n4)CCCC5)cn3)n2)cn1 (centres unmarked) [Example 276, (4-((2-((2-(1-(Cyclopropylsulfonyl)-1H-pyrazol-4-yl)pyrimidin-4-yl)amino)-5-(4,5,6,7-tetrahydropyrazolo[1,5-a]pyridin-2-yl)pyridin-4-yl)amino)-1-fluorocyclohexyl)methanol]
12 | 0.7 | 0.2 | 0.2 | 0.5 | 0.7 | 0.6 | 0.4 | 0.3 | 2.2 | 162 |  |  |  |  |  | O=S(=O)(C1CC1)n1cc(-c2nccc(Nc3cc(NC4CCC5(CC4)CNC5)c(-c4ccn(C(F)F)n4)cn3)n2)cn1 [Example 27, N^2-(2-(1-(Cyclopropylsulfonyl)-1H-pyrazol-4-yl)pyrimidin-4-yl)-5-(1-(difluoromethyl)-1H-pyrazol-3-yl)-N^4-(2-azaspiro[3.5]nonan-7-yl)pyridine-2,4-diamine]
13 |  |  |  |  |  | 0.1 | 0.2 | 1.1 | 8.3 | 2970 |  |  |  |  |  | CN(C)C[C@H]1C[C@@H](CNc2cc(Nc3ccnc(-c4cnn(S(=O)(=O)C5CC5)c4)n3)ncc2-c2ccn(C(F)F)n2)C1 [Example 203, N^2-(2-(1-(Cyclopropylsulfonyl)-1H-pyrazol-4-yl)pyrimidin-4-yl)-5-(1-(difluoromethyl)-1H-pyrazol-3-yl)-N^4-(((1s,3s)-3-((dimethylamino)methyl)cyclobutyl)methyl)pyridine-2,4-diamine]
14 |  |  |  |  |  | 2.6 | 6 | 281 | 246 | > 10000 |  |  |  |  |  | CC(O)C(C)(C)Nc1cc(Nc2ccnc(-c3cnn(S(=O)(=O)C4CC4)c3)n2)ncc1-c1ccn(C(F)F)n1 (centres unmarked) [Example 7, 3-((2-((2-(1-(Cyclopropylsulfonyl)-1H-pyrazol-4-yl)pyrimidin-4-yl)amino)-5-(1-(difluoromethyl)-1H-pyrazol-3-yl)pyridin-4-yl)amino)-3-methylbutan-2-ol]
15 | 0.5 | 0.8 | 43.9 | 30.7 | 233 |  |  |  |  |  |  |  |  |  |  | O=S(=O)(C1CC1)n1cc(-c2nccc(Nc3cc(NC4CCCN(CCF)C4)c(-c4ccn(C(F)F)n4)cn3)n2)cn1 (centres unmarked) [Example 218, N^2-(2-(1-(Cyclopropylsulfonyl)-1H-pyrazol-4-yl)pyrimidin-4-yl)-5-(1-(difluoromethyl)-1H-pyrazol-3-yl)-N^4-(1-(2-fluoroethyl)piperidin-3-yl)pyridine-2,4-diamine]

— patent US12258327B2, “5-membered heteroaryl-containing aminopyridine compounds as EGFR inhibitors” (YUHAN CORPORATION, priority 2021, dated 2025)
